The values that follow come from patent US6114369A, “Benzimidazole compound” (Nissan Chemical Industries, Ltd., priority 1997, dated 2000).

Structures can show the parent of a compound that is named as a salt.

In test [1] the test system is histamine-induced contraction of the isolated guinea-pig ileum. Kind of test: Inhibitory effect on histamine-induced contraction of the isolated guinea-pig ileum. In kind it is cell-based. The conditions noted are these: Cavia porcellus, 5 min, histamine 0.1 μM, 5 min incubation, 30° C. As for the experimental part: (§1) Inhibitory effect on substance P and histamine-induced contraction of the isolated guinea-pig ileum. Test compounds were dissolved and diluted in 100% dimethylsulfoxide (DMSO). Substance P (SP, Peninsula Laboratories or Peptide Institute) and histamine dihydrochloride (Wako Pure Chemicals) were dissolved and diluted in distilled water. […] Male Hartley guinea-pigs (300-400 g) were killed by a blow to the head. The ileum was removed and the ileal strips (15-20 mm) were suspended under 0.5 g tension in a 20 ml organ bath containing a modified Tyrode solution maintained at 30° C. and aerated with 95% O2 +5% CO2. Responses were recorded isotonically. Tissues were equilibrated for 15 min, and then the constant responses to histamine (1 μM) were obtained. Then substance P (0.01 μM) or histamine (0.1 μM)-induced contraction was obtained after 5 min incubation with or without the test compounds. Contractile responses to substance P or histamine with the test compound were expressed as a percentage of those without the test compound. IC50 was the concentration of the test compound required to prevent 50% of the contractile response elicited by substance P or histamine. Compound Nos. of the tested compounds correspond to the numbers of Preparation Examples.

Test [2] concerns substance P-induced contraction of the isolated guinea-pig ileum. The experiment in a line: Inhibitory effect on substance P-induced contraction of the isolated guinea-pig ileum. Format: cell-based. The conditions noted are these: Cavia porcellus, 5 min, substance P 0.01 μM, 5 min incubation, 30° C. As for the experimental part:
as §1

For orientation: IC50 means the midpoint of a concentration-inhibition curve.

Regarding `CN(CCCN(C)c1nc2ccccc2n1Cc1ccc(F)cc1)C(=O)NCc1cc(C(F)(F)F)cc(C(F)(F)F)c1` [Compound 1, N-methyl-N-(1-(4-fluorobenzyl)benzimidazol-2-yl)-N'-methyl-N'-(3,5-bis(trifluoromethyl)benzylaminocarbonyl)-1,3-propylenediamine hydrochloride], the IC50 in test [1] was 290 nM; in test [2], 590 nM.

As for `CN(CCN(C)c1nc2ccccc2n1Cc1ccc(F)cc1)C(=O)NCc1cc(C(F)(F)F)cc(C(F)(F)F)c1` [Compound 2, N-methyl-N-(1-(4-fluorobenzyl)benzimidazol-2-yl)-N'-methyl-N'-(3,5-bis(trifluoromethyl)benzylaminocarbonyl)-1,2-ethylenediamine hydrochloride], the results for the IC50 in test [1] and in test [2] were 1100 nM and 2800 nM, respectively.

`CN(CCCN(C)C(=O)NCc1cc(C(F)(F)F)cc(C(F)(F)F)c1)Cc1nc2ccccc2n1Cc1ccc(F)cc1` [Compound 3, N-methyl-N-(1-(4-fluorobenzyl)benzimidazol-2-yl)methyl-N'-methyl-N'-(3,5-bis(trifluoromethyl)benzylaminocarbonyl)-1,3-propylenediamine hydrochloride]: the figures for the IC50 in test [1] and in test [2] were 160 nM and 1400 nM, respectively.

`CN(CCN(C)C(=O)NCc1cc(C(F)(F)F)cc(C(F)(F)F)c1)Cc1nc2ccccc2n1Cc1ccc(F)cc1` [Compound 4, N-methyl-N-(1-(4-fluorobenzyl)benzimidazol-2-yl)methyl-N'-methyl-N'-(3,5-bis(trifluoromethyl)benzylaminocarbonyl)-1,2-ethylenediamine hydrochloride]: the IC50 in test [1] was 100 nM; in test [2], 950 nM.

Take `COc1ccccc1CNC(=O)N(C)CCCN(C)c1nc2ccccc2n1Cc1ccc(F)cc1` [Compound 5]: the IC50 in test [1] was found to be 29 nM; in test [2], 3000 nM.

As for `CN(CCCN(C)c1nc2ccccc2n1Cc1ccc(F)cc1)C(=O)NCc1ccccc1Cl` [Compound 6], the IC50 in test [1] was found to be 25 nM; in test [2] it was 2700 nM.

Take `COc1cc(CNC(=O)N(C)CCCN(C)c2nc3ccccc3n2Cc2ccc(F)cc2)cc(OC)c1OC` [Compound 7]: the IC50 in test [1] is 100 nM; in test [2] it was 4000 nM.

`COc1cc(CNC(=O)N(C)CCCN(C)c2nc3ccccc3n2Cc2ccc(F)cc2)cc(OC)c1` [Compound 8]: the IC50 in test [1] amounted to 280 nM; in test [2], 3000 nM.

Regarding `CN(CCCN(C)c1nc2ccccc2n1Cc1ccc(F)cc1)C(=O)NCc1ccc(F)cc1` [Compound 9], the IC50 came to 36 nM in test [1] and 2700 nM in test [2].

Regarding `COc1cccc(CNC(=O)N(C)CCCN(C)c2nc3ccccc3n2Cc2ccc(F)cc2)c1` [Compound 10], the figures for the IC50 in test [1] and in test [2] were 41 nM and 2800 nM, respectively.

As to `CN(CCCN(C)c1nc2ccccc2n1Cc1ccc(F)cc1)C(=O)NCc1cc(Cl)cc(Cl)c1` [Compound 11], the figures for the IC50 in test [1] and in test [2] were 200 nM and 1500 nM, respectively.

Take `COc1ccc(CNC(=O)N(C)CCCN(C)c2nc3ccccc3n2Cc2ccc(F)cc2)cc1` [Compound 12]: the values for the IC50 in test [1] and in test [2] were 44 nM and 4100 nM, respectively.

As to `Cc1ccc(CNC(=O)N(C)CCCN(C)c2nc3ccccc3n2Cc2ccc(F)cc2)cc1` [Compound 13], the IC50 in test [1] amounted to 28 nM; in test [2], 2800 nM.
